# PMC6540285, “Evaluation of Protein Kinase Inhibitors with PLK4 Cross-Over Potential in a Pre-Clinical Model of Cancer” (International Journal of Molecular Sciences, 2019)
# How the values were obtained:
# AMPK (A1/B2/G3) = AMPK (A1/B2/G3) (Homo sapiens, UniProt Q13131); experiment: SelectScreen kinase profiling, ZLYTE; assay type: biochemical
# MAPK12 (p38 gamma) = MAPK12 (p38 gamma) (Homo sapiens, UniProt P53778); experiment: SelectScreen kinase profiling, ZLYTE; assay type: biochemical
# MAP3K3 (MEKK3) = MAP3K3 (MEKK3) (Homo sapiens, UniProt Q99759); experiment: SelectScreen kinase profiling, LanthaScreen binding
# Chain of MAP3K3 (MEKK3) (Q99759 whole entry): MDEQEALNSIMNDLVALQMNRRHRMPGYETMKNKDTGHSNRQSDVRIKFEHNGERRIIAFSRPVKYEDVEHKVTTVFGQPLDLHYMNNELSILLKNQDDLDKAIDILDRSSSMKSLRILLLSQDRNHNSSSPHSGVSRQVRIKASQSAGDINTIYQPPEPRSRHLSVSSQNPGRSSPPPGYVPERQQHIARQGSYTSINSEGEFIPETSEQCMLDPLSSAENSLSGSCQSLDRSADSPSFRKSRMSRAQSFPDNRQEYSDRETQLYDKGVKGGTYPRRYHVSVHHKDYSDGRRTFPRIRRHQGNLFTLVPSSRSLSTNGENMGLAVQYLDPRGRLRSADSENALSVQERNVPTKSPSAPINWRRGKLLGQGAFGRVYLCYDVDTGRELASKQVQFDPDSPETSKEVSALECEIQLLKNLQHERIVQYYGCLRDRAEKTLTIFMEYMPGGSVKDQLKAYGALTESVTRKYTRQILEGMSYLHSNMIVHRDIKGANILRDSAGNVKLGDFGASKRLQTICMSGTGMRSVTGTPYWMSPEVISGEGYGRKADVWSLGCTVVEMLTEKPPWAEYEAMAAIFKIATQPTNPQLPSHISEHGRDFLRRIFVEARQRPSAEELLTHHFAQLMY
# MERTK (cMER) = MERTK (cMER) (Homo sapiens, UniProt Q12866); experiment: SelectScreen kinase profiling, ZLYTE; assay type: biochemical
# [1] = molecular target: MAPK14 (p38 alpha) Direct (Homo sapiens, UniProt Q16539); experiment: SelectScreen kinase profiling, ZLYTE; assay type: biochemical
# Chain of MAPK14 (p38 alpha) Direct (Q16539 whole entry): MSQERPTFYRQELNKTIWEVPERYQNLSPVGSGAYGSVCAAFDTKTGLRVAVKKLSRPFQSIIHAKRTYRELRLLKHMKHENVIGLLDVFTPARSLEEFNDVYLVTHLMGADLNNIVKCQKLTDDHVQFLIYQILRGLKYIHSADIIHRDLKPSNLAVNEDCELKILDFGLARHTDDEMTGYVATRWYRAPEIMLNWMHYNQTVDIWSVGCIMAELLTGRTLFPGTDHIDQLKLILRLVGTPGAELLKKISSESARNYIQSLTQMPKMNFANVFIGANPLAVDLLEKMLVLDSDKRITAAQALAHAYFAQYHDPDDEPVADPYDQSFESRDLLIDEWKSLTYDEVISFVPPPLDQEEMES
# CDK9/cyclin T1 = CDK9/cyclin T1 (Homo sapiens, UniProt P50750); experiment: SelectScreen kinase profiling, Adapta; assay type: biochemical; conditions: CDK9/cyclin T1, 10 µM
# ERN1 = ERN1 (Homo sapiens, UniProt O75460); experiment: SelectScreen kinase profiling, LanthaScreen binding; conditions: ERN1, 10 µM
# [2] = molecular target: MAP2K1 (MEK1) S218D S222D (Homo sapiens, UniProt Q02750, S218D/S222D); experiment: as above
# Chain of MAP2K1 (MEK1) S218D S222D (Q02750 whole entry S218D/S222D): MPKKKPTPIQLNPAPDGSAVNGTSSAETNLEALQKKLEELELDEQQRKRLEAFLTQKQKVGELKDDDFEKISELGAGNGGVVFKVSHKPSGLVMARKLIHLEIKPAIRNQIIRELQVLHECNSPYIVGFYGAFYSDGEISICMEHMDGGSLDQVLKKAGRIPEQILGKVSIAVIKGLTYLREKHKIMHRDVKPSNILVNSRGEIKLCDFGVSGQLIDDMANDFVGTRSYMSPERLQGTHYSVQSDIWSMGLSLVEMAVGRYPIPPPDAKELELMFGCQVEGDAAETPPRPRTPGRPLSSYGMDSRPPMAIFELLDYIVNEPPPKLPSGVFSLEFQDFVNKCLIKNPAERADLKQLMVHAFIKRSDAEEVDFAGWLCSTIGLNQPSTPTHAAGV
# ABL1 T315I = ABL1 T315I (Homo sapiens, UniProt P00519, T315I); experiment: SelectScreen kinase profiling, ZLYTE; assay type: biochemical
# ERN2 = ERN2 (Homo sapiens, UniProt Q76MJ5); experiment: SelectScreen kinase profiling, LanthaScreen binding; conditions: ERN2, 10 µM
# Chain of ERN2 (Q76MJ5 35-926): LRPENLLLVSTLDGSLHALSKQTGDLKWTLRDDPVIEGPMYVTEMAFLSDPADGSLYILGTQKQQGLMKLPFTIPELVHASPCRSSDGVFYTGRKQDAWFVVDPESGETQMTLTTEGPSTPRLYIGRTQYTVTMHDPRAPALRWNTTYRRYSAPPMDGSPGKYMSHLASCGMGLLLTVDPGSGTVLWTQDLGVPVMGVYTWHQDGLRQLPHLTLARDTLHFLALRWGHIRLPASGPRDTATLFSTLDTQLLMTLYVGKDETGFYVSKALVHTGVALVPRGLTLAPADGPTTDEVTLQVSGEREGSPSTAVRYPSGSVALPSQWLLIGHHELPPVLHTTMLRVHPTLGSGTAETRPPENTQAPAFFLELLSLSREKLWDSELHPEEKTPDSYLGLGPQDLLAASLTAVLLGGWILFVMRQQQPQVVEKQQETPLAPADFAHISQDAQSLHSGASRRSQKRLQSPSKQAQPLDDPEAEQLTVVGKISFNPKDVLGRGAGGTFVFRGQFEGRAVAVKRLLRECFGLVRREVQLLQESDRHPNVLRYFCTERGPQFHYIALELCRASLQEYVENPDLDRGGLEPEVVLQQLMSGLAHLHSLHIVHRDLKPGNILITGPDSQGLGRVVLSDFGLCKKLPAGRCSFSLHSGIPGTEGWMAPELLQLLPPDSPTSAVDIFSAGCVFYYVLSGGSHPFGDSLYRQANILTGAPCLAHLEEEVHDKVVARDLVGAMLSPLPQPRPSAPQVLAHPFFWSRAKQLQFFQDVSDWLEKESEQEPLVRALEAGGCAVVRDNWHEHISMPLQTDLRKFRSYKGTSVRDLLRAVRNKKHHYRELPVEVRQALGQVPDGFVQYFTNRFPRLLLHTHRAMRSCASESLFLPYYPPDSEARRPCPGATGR
# MAPK11 (p38 beta) = MAPK11 (p38 beta) (Homo sapiens, UniProt Q15759); experiment: SelectScreen kinase profiling, ZLYTE; assay type: biochemical
# P450 2C19 = P450 2C19 (Homo sapiens, UniProt P33261)
# PIP5K1A = PIP5K1A (Homo sapiens, UniProt Q99755); experiment: SelectScreen kinase profiling, Adapta; assay type: biochemical
# MAP4K5 (KHS1) = MAP4K5 (KHS1) (Homo sapiens, UniProt Q9Y4K4); experiment: SelectScreen kinase profiling, ZLYTE; assay type: biochemical
# NIM1K = NIM1K (Homo sapiens, UniProt Q8IY84); experiment: SelectScreen kinase profiling, ZLYTE; assay type: biochemical
# PI4KA (PI4K alpha) = PI4KA (PI4K alpha) (Homo sapiens, UniProt P42356); experiment: SelectScreen kinase profiling, Adapta; assay type: biochemical
# HUNK = HUNK (Homo sapiens, UniProt P57058); experiment: SelectScreen kinase profiling, LanthaScreen binding
# Chain of HUNK (P57058 whole entry): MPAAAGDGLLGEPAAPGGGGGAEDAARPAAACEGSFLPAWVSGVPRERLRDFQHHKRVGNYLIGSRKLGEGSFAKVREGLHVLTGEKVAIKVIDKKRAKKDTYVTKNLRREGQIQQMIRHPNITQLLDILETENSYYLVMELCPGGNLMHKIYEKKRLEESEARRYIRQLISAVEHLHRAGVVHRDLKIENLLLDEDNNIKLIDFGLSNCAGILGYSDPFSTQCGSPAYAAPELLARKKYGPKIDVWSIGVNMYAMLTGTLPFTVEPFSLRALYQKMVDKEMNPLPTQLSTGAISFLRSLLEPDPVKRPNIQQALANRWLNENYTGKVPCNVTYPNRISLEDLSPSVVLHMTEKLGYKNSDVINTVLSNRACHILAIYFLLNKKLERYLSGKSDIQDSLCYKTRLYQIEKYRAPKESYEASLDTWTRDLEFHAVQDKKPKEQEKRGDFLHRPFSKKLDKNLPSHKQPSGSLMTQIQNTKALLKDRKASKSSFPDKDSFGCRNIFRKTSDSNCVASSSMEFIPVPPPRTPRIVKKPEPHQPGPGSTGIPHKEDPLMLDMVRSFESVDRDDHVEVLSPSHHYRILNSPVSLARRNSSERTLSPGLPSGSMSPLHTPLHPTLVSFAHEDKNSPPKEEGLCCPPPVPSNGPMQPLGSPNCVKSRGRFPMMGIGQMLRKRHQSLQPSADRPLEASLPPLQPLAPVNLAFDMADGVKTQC
# MAP3K19 (YSK4) = MAP3K19 (YSK4) (Homo sapiens, UniProt Q56UN5); experiment: SelectScreen kinase profiling, ZLYTE; assay type: biochemical
# STK16 (PKL12) = STK16 (PKL12) (Homo sapiens, UniProt O75716); experiment: SelectScreen kinase profiling, LanthaScreen binding
# PDK1 = PDK1 (Homo sapiens, UniProt O15530); experiment: SelectScreen kinase profiling, ZLYTE; assay type: biochemical; conditions: PDK1, 10 µM
# KIT V559D V654A = KIT V559D V654A (Homo sapiens, UniProt P10721, V559D/V654A); experiment: SelectScreen kinase profiling, ZLYTE; assay type: biochemical
# Chain of KIT V559D V654A (P10721 26-976 V559D/V654A): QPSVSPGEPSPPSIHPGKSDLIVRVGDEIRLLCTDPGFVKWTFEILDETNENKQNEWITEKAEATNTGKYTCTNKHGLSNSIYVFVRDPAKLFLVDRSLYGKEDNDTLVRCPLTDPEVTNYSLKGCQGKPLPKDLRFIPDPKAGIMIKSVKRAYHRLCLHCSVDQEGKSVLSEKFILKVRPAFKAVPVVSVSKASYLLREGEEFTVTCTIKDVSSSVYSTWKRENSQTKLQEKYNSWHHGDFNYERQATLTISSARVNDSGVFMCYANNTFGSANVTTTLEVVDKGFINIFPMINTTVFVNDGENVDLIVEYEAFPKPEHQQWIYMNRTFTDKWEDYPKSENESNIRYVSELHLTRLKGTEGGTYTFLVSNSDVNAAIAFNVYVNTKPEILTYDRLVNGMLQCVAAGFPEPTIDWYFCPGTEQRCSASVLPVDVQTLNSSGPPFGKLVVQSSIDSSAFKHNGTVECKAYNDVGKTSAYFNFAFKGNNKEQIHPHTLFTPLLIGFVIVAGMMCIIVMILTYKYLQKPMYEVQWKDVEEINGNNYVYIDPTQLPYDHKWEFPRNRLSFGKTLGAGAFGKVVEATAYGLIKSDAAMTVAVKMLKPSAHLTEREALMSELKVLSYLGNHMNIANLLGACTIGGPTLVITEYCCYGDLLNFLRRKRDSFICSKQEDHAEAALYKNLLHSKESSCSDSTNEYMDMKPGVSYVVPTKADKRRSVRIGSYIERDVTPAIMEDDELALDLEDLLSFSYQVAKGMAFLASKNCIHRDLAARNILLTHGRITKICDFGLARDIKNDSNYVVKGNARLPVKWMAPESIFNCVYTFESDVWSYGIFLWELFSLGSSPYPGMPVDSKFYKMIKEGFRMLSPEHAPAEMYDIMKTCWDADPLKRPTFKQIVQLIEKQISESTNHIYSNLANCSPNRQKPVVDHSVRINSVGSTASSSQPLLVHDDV
# MAP2K6 (MKK6) = MAP2K6 (MKK6) (Homo sapiens, UniProt P52564); experiment: SelectScreen kinase profiling, ZLYTE; assay type: biochemical
# MARK4 = MARK4 (Homo sapiens, UniProt Q96L34); experiment: SelectScreen kinase profiling, ZLYTE; assay type: biochemical; conditions: MARK4, 10 µM
# PKN2 (PRK2) = PKN2 (PRK2) (Homo sapiens, UniProt Q16513); experiment: SelectScreen kinase profiling, LanthaScreen binding
# LRRK2 = LRRK2 (Homo sapiens, UniProt Q5S007); experiment: SelectScreen kinase profiling, Adapta; assay type: biochemical; conditions: LRRK2, 10 µM
# MASTL = MASTL (Homo sapiens, UniProt Q96GX5); experiment: SelectScreen kinase profiling, LanthaScreen binding
# LRRK2 FL = LRRK2 FL (Homo sapiens, UniProt Q5S007); experiment: SelectScreen kinase profiling, Adapta; assay type: biochemical
# MAPKAPK2 = MAPKAPK2 (Homo sapiens, UniProt P49137); experiment: SelectScreen kinase profiling, ZLYTE; assay type: biochemical; conditions: MAPKAPK2, 10 µM
# ABL1 E255K = ABL1 E255K (Homo sapiens, UniProt P00519, E255K); experiment: SelectScreen kinase profiling, ZLYTE; assay type: biochemical
# [3] = molecular target: PIK3CA/PIK3R1 (p110 alpha/p85 alpha) (Homo sapiens, UniProt P42336); experiment: SelectScreen kinase profiling, Adapta; assay type: biochemical; conditions: PIK3CA/PIK3R1, 10 µM
# CYP3A4 = CYP3A4 (Homo sapiens, UniProt P08684); experiment: SelectScreen P450 Vivid biochemical assay; conditions: 10000nM
# Chain of CYP3A4 (P08684 whole entry): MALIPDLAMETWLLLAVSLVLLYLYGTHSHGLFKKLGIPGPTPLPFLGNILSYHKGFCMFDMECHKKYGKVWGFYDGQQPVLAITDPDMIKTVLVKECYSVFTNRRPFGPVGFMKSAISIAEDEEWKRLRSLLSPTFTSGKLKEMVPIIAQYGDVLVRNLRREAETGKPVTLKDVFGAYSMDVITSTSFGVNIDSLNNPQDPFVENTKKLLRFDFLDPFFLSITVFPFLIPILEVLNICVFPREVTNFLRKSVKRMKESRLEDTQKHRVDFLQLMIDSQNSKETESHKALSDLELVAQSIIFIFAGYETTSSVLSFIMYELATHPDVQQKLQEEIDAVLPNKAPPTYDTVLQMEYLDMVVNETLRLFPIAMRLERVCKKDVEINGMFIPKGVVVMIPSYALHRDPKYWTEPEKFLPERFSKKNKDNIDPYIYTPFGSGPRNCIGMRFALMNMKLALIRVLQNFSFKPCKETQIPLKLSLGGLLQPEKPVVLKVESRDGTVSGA
# [4] = molecular target: MAP3K7/MAP3K7IP1 (TAK1-TAB1) (Homo sapiens, UniProt O43318); experiment: SelectScreen kinase profiling, LanthaScreen binding
# MAPK9 (JNK2) = MAPK9 (JNK2) (Homo sapiens, UniProt P45984); experiment: as above
# RIPK3 = RIPK3 (Homo sapiens, UniProt Q9Y572); experiment: as above; conditions: RIPK3, 10 µM
# NLK = NLK (Homo sapiens, UniProt Q9UBE8); experiment: as above
# PIM3 = PIM3 (Homo sapiens, UniProt Q86V86); experiment: SelectScreen kinase profiling, ZLYTE; assay type: biochemical; conditions: PIM3, 10 µM
# SGK (SGK1) = SGK (SGK1) (Homo sapiens, UniProt O00141); experiment: SelectScreen kinase profiling, ZLYTE; assay type: biochemical
# CHEK2 (CHK2) = CHEK2 (CHK2) (Homo sapiens, UniProt O96017); experiment: SelectScreen kinase profiling, ZLYTE; assay type: biochemical
# Chain of CHEK2 (CHK2) (O96017 whole entry): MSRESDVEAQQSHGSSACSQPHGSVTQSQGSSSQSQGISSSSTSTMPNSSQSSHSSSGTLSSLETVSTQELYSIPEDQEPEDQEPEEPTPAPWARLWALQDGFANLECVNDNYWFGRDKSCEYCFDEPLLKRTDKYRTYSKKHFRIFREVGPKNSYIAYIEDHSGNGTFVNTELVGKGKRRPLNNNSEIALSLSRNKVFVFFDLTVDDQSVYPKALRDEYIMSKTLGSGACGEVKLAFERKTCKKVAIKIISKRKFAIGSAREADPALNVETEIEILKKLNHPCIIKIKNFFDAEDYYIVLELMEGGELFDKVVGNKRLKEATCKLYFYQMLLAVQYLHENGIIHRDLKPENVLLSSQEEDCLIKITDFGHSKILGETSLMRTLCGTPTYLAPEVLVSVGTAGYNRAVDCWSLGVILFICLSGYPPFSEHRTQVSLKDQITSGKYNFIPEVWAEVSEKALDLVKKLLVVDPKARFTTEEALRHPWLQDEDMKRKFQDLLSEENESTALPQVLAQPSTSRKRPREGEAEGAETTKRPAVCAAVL
# AKT2 (PKB beta) = AKT2 (PKB beta) (Homo sapiens, UniProt P31751); experiment: SelectScreen kinase profiling, ZLYTE; assay type: biochemical
smiles,measurement,setting,value
O=C(c1ccc(/C=C/c2n[nH]c3ccccc23)cc1)N1CCNCC1 [KW-2449],inhibition at 10 µM,AMPK (A1/B2/G3),99%
same,inhibition at 10 µM,MAPK12 (p38 gamma),23%
same,inhibition at 10 µM,MAP3K3 (MEKK3),82%
same,inhibition at 10 µM,MERTK (cMER),93%
same,inhibition at 10 µM,[1],44%
same,inhibition at 10 µM,CDK9/cyclin T1,82%
same,inhibition at 10 µM,ERN1,32%
same,inhibition at 10 µM,[2],66%
same,inhibition at 10 µM,ABL1 T315I,101%
same,inhibition at 10 µM,ERN2,74%
same,inhibition at 10 µM,MAPK11 (p38 beta),90%
same,IC50,P450 2C19,9.41 µM
same,inhibition at 10 µM,PIP5K1A,16%
same,inhibition at 10 µM,MAP4K5 (KHS1),102%
same,inhibition at 10 µM,NIM1K,79%
same,inhibition at 10 µM,PI4KA (PI4K alpha),7%
same,inhibition at 10 µM,HUNK,84%
same,inhibition at 10 µM,MAP3K19 (YSK4),98%
same,inhibition at 10 µM,STK16 (PKL12),83%
same,inhibition at 10 µM,PDK1,77%
same,inhibition at 10 µM,KIT V559D V654A,77%
same,inhibition at 10 µM,MAP2K6 (MKK6),79%
same,inhibition at 10 µM,MARK4,101%
same,inhibition at 10 µM,PKN2 (PRK2),65%
same,inhibition at 10 µM,LRRK2,100%
same,inhibition at 10 µM,MASTL,83%
same,inhibition at 10 µM,LRRK2 FL,100%
same,inhibition at 10 µM,MAPKAPK2,28%
same,inhibition at 10 µM,ABL1 E255K,99%
same,inhibition at 10 µM,[3],11%
same,% Inhibition 3A4 BOMCC,CYP3A4; substrate BOMCC,63%
same,% Inhibition 3A4 DBOMF,CYP3A4; substrate DBOMF,46%
same,inhibition at 10 µM,[4],26%
same,inhibition at 10 µM,MAPK9 (JNK2),79%
same,inhibition at 10 µM,RIPK3,18%
same,inhibition at 10 µM,NLK,-2%
same,inhibition at 10 µM,PIM3,2%
same,inhibition at 10 µM,SGK (SGK1),98%
same,inhibition at 10 µM,CHEK2 (CHK2),100%
same,inhibition at 10 µM,AKT2 (PKB beta),29%
